# Results from patent US11365263B2, “Bifunctional cytotoxic agents containing the CTI pharmacophore” (PFIZER INC., priority 2015, dated 2022).
# pIC50: −log10 of the molar value.
# Legend:
# Assay type in all cases: cell-based
# [1] = tested on: MDA-MB-361 DYT2 (human breast carcinoma); test: Cytotoxicity assay for payloads (MTS), MDA-MB-361 DYT2; settings: 96 h, MDA-MB-361 DYT2 cells, four days incubation, read-out: Free payload potency (IC50), DYT2
# Description: (§1) Cancer cell lines were obtained from ATCC (Manassas, Va.). N87 (human gastric carcinoma derived from metastatic liver site). HL60 (leukemia) and MDA-MB-361 DYT2 (human breast carcinoma MDA-MB-361) were grown in RPMI 1640 media. All media were supplemented with 10% fetal bovine serum, 1% sodium pyruvate, and 1% L-glutamine (Invitrogen, Grand Island, N.Y.). Human umbilical vein endothelial cells (HUVEC) were obtained from Lonza (Allendale, N.J.) and maintained in EGM2 media supplemented with EGM-2 SingleQuots (Lonza #CC-4176). All cells were maintained in a humidified incubator (37° C., 5% CO2).
# (§2) Cytotoxicity Assay Procedure for Payloads
# (§3) Cells in 100 μl medium were cultured in a 96-well plate. Cancer cell lines treated with the indicated compounds by adding 50 μl of 3× stocks in duplicate at 10 concentrations. Cells were incubated with compounds for four days, then 30 μl of CellTiter® 96 AQueous One MTS Solution (Promega Cat #G3582) was added to the cells, incubated 1.5 hr at 37° C., then absorbance measured at 490 nm on a Victor plate reader (Perkin Elmer, Waltham, Mass.). Relative cell viability was determined as a percentage of untreated control wells. IC50 values were calculated using four parameter logistic model #203 with XLfit v4.2 (IDBS, Guildford, Surry, UK).
# HL60 (leukemia) = test: Cytotoxicity assay for payloads (MTS), HL60; settings: Homo sapiens, HL-60, 96 h, HL60 cells, four days incubation, read-out: Free payload potency (IC50), HL60
# Description: as §1, §2, §3
# [2] = tested on: N87 (human gastric carcinoma); test: Cytotoxicity assay for payloads (MTS), N87; settings: 96 h, N87 cells, four days incubation, read-out: Free payload potency (IC50), N87
# Description: as §1, §2, §3
structure (smiles),measurement,setting,value
"CC(=O)Oc1cc2c(c3c(C)csc13)[C@H](CCl)CN2C(=O)C12C3C4C1C1C2C3C41C(=O)N1C[C@@H](CCl)c2c1cc(OC(C)=O)c1scc(C)c21 (stereo partly drawn) [Compound 60, pentacyclo[4.2.0.0^˜2,5^˜.0^˜3,8^˜.0^˜4,7^˜]octane-1,4-diylbis[carbonyl(8S)-8-(chloromethyl)-1-methyl-7,8-dihydro-6H-thieno[3,2-e]indole-6,4-diyl]diacetate]",pIC50,[1],10.10
same,pIC50,HL60 (leukemia),11.05
same,pIC50,[2],9.91
[2H]C([2H])(CC(=O)N1C[C@@H](CCl)c2c1cc(OC(C)=O)c1scc(C)c21)CC(=O)N1C[C@@H](CCl)c2c1cc(OC(C)=O)c1scc(C)c21 [Compound 87],pIC50,[1],11.70
same,pIC50,HL60 (leukemia),9.46
same,pIC50,[2],10.44
[2H]C([2H])(CC([2H])([2H])C(=O)N1C[C@@H](CCl)c2c1cc(OC(C)=O)c1scc(C)c21)C(=O)N1C[C@@H](CCl)c2c1cc(OC(C)=O)c1scc(C)c21 [Compound 88],pIC50,[1],11.40
same,pIC50,HL60 (leukemia),9.39
same,pIC50,[2],10.39
[2H]C([2H])(C(=O)N1C[C@@H](CCl)c2c1cc(OC(C)=O)c1scc(C)c21)C([2H])([2H])C([2H])([2H])C(=O)N1C[C@@H](CCl)c2c1cc(OC(C)=O)c1scc(C)c21 [Compound 89],pIC50,[1],11.70
same,pIC50,HL60 (leukemia),9.52
same,pIC50,[2],10.39
